{
  "source": "paper PMC11568214",
  "about": "“The impact of 9-azaglycophymine and phenylguanidine derivatives on the proliferation of various breast cancer cell lines in vitro and in vivo” (Scientific Reports, 2024)",
  "key": {"[1]": {"test_system": "4T1 mouse breast cancer cells (TNBC)", "assay": "Syngeneic orthotopic 4T1 breast cancer model in BALB/c mice, tumor volume", "format": "in vivo", "text": "Compound 19 was selected to be tested against a syngeneic breast cancer model induced by orthotopic inoculation of 4T1 mouse breast cancer cells (TNBC) into BALB/c mice. In that exploratory study, we aimed to investigate for the first time a proposed anticancer efficacy of that compound. For that purpose, three groups were included in the study, each comprising eight animals. The resulting total number of 24 animals aimed to avoid under- or overpowering of the study. The animals were kept under standard laboratory conditions with an ad libitum regime for food and water intake. 5 × 10^4 of 4T1 cells in 50 µL PBS were inoculated in the fourth right mammary fat pad of female mice at day 0. Anesthesia was induced using a combination of ketamine and xylazine at doses of 60 mg/kg and 7.5 mg/kg, respectively.\n(§1) On day 6, the mice were assigned to the study groups using a stratified randomization approach, ensuring that the mean tumor volumes were as similar as possible across all groups. The control group was treated with 400 µL of vehicle solution, the low dose compound 19 group with 5 mg/kg in 400 µL of vehicle, and the high dose group with 20 mg/mL in 400 µL of vehicle. The vehicle was 4% (v/v) DMSO in PBS, and the administration route was intraperitoneal (i.p.). The animals were treated daily on days 6–10 (starting from the day when tumors became palpable), 13–17 and day 20. Animals were visually examined daily, and urine samples were collected on the first and last day of treatment and analyzed by Multistix urine test stripes (Siemens Healthineers, Erlangen, Germany). On day 21 of the experiment, the mice were sacrificed using cervical dislocation. Following the sacrifice, the tumor diameters were measured using a caliper. The tumor volume (V) was then calculated using the formula V = L*W^2*0.52[36], where L represents the longest diameter and W the shortest diameter of the tumor."}, "HCC1937": {"test_system": "HCC1937", "assay": "Pan-caspase activation, ApoStat staining, flow cytometry", "format": "cell-based, human", "set-up": "key: ↑: induction; ↓: inhibition; ↔: no effect", "conditions": "HCC1937, IC50 for 72 h", "method": "(§2) Cells were seeded in 6-well plates and incubated for 24 h under standard culture conditions. […] For the analyses of pan-caspase activation, the cell suspension was centrifuged for 3 min at 800 rpm, and the cell pellet was stained with 100 µL of ApoStat working solution (1 µL of ApoStat and 5% (v/v) FCS in 100 µL of PBS). Cells were incubated for 30 min under standard culture conditions. The cell suspension was centrifuged for 3 min at 800 rpm, and the cell pellet was washed with 1 mL of fresh PBS. Finally, all samples were analyzed by using flow cytometry (FACSAria III, BD Biosciences, New Jersey, USA)."}, "MCF-7": {"test_system": "MCF-7", "assay": "Pan-caspase activation, ApoStat staining, flow cytometry", "format": "cell-based, human", "set-up": "key: ↑: induction; ↓: inhibition; ↔: no effect", "conditions": "MCF-7, IC50 for 72 h", "method": "as §2"}, "BT-474": {"test_system": "BT-474", "assay": "Pan-caspase activation, ApoStat staining, flow cytometry", "format": "cell-based, human", "set-up": "key: ↑: induction; ↓: inhibition; ↔: no effect", "conditions": "BT-474, IC50 for 72 h", "method": "as §2"}, "MDA-MB-468": {"test_system": "MDA-MB-468", "assay": "Pan-caspase activation, ApoStat staining, flow cytometry", "format": "cell-based, human", "set-up": "key: ↑: induction; ↓: inhibition; ↔: no effect", "conditions": "MDA-MB-468, IC50 for 72 h", "method": "as §2"}, "[2]": {"assay": "Urine analysis with Multistix urine test stripes in the 4T1 in vivo study", "set-up": "species or system BALB/c mice; key to Glucose (urine) / Blood (urine): -: marker was not detectable in the respective urine sample; +: marker was detected", "method": "as §1, with “The control group was treated with 400 µL of vehicle solution, the low dose compound 19 group with 5 mg/kg in 400 µL of vehicle, and the high dose group with 20 mg/mL in 400 µL of vehicle.” left out"}, "4T1": {"test_system": "4T1", "assay": "Pan-caspase activation, ApoStat staining, flow cytometry", "format": "cell-based, mouse", "set-up": "key: ↑: induction; ↓: inhibition; ↔: no effect", "conditions": "4T1, IC50 for 72 h", "method": "as §2"}, "[3]": {"assay": "Monitoring of systemic toxicity in the 4T1 in vivo study (body mass, behavior, fur, food intake)", "set-up": "species or system BALB/c mice", "conditions": "5 and 20 mg/kg i.p.", "method": "as §1"}},
  "note": "“And” between values parts separate entries of the source, which are not always exact repeats. Equal values may be shown once. “Also recorded” adds a separate entry of the source.",
  "data": [
    {"smiles": "O=c1[nH]c(Nc2ccc([N+](=O)[O-])cc2)nc2ccccc12", "note": "[Compound 19, 4′-nitro-9-aza-glycophymine]", "values": [
      {"measurement": "reduction of the tumor volume compared to the control group", "setting": "[1]; 5 mg/kg i.p., day 21", "result": 30, "unit": "%"},
      {"measurement": "median tumor volume", "setting": "[1]; 5 mg/kg i.p., days 6–10, 13–17 and 20, measured day 21, control group 205 mm^3", "result": 143, "unit": "mm^3"},
      {"measurement": "tumor suppression at the higher dose", "setting": "[1]; 20 mg/kg i.p., compared with 5 mg/kg", "result": "no further improvement of the tumor suppression was observed"},
      {"measurement": "Pan-caspases", "setting": "HCC1937", "result": "↑"},
      {"measurement": "Pan-caspases", "setting": "MCF-7", "result": "↔"},
      {"measurement": "Pan-caspases", "setting": "BT-474", "result": "↑"},
      {"measurement": "Pan-caspases", "setting": "MDA-MB-468", "result": "↔"},
      {"measurement": "Bilirubin (urine)", "setting": "[2]; 5 mg/kg, Day 6, three mice", "result": "small"},
      {"measurement": "Blood (urine)", "setting": "[2]; 5 mg/kg, Day 6, three mice", "result": "-"},
      {"measurement": "Ketones (urine)", "setting": "[2]; 5 mg/kg, Day 6, three mice", "result": 10, "unit": "mg/dL"},
      {"measurement": "Leucocytes (urine)", "setting": "[2]; 5 mg/kg, Day 6, three mice", "result": 25, "unit": "cells/µL"},
      {"measurement": "Specific gravity (urine)", "setting": "[2]; 5 mg/kg, Day 6, three mice", "result": "1.025 and 1.000 and 1.030"},
      {"measurement": "pH (urine)", "setting": "[2]; 5 mg/kg, Day 6, three mice", "result": "6 and 5"},
      {"measurement": "Bilirubin (urine)", "setting": "[2]; 5 mg/kg, Day 20, three mice", "result": "small"},
      {"measurement": "Blood (urine)", "setting": "[2]; 5 mg/kg, Day 20, three mice", "result": "-"},
      {"measurement": "Glucose (urine)", "setting": "[2]; 5 mg/kg, Day 20, three mice", "result": "-"},
      {"measurement": "Ketones (urine)", "setting": "[2]; 5 mg/kg, Day 20, three mice", "result": 10, "unit": "mg/dL"},
      {"measurement": "Leucocytes (urine)", "setting": "[2]; 5 mg/kg, Day 20, three mice", "result": 25, "unit": "cells/µL"},
      {"measurement": "Proteins (urine)", "setting": "[2]; 5 mg/kg, Day 20, three mice", "result": 100, "unit": "mg/dL"},
      {"measurement": "Specific gravity (urine)", "setting": "[2]; 5 mg/kg, Day 20, three mice", "result": "1.030 and 1.025"},
      {"measurement": "pH (urine)", "setting": "[2]; 5 mg/kg, Day 20, three mice", "result": 6},
      {"measurement": "Bilirubin (urine)", "setting": "[2]; 20 mg/kg, Day 6, three mice", "result": "small"},
      {"measurement": "Blood (urine)", "setting": "[2]; 20 mg/kg, Day 6, three mice", "result": "-"},
      {"measurement": "Ketones (urine)", "setting": "[2]; 20 mg/kg, Day 6, three mice", "result": 10, "unit": "mg/dL"},
      {"measurement": "Leucocytes (urine)", "setting": "[2]; 20 mg/kg, Day 6, three mice", "result": 25, "unit": "cells/µL"},
      {"measurement": "Proteins (urine)", "setting": "[2]; 20 mg/kg, Day 6, three mice", "result": 30, "unit": "mg/dL"},
      {"measurement": "Specific gravity (urine)", "setting": "[2]; 20 mg/kg, Day 6, three mice", "result": "1.025 and 1.030"},
      {"measurement": "Uroglobin (urine)", "setting": "[2]; 20 mg/kg, Day 6, three mice", "result": 4, "unit": "mg/dL"},
      {"measurement": "pH (urine)", "setting": "[2]; 20 mg/kg, Day 6, three mice", "result": "6 and 5"},
      {"measurement": "Bilirubin (urine)", "setting": "[2]; 20 mg/kg, Day 20, three mice", "result": "small; also recorded: moderate"},
      {"measurement": "Blood (urine)", "setting": "[2]; 20 mg/kg, Day 20, three mice", "result": "-"},
      {"measurement": "Ketones (urine)", "setting": "[2]; 20 mg/kg, Day 20, three mice", "result": "10 mg/dL and 5 mg/dL"},
      {"measurement": "Specific gravity (urine)", "setting": "[2]; 20 mg/kg, Day 20, three mice", "result": "1.030 and 1.025"},
      {"measurement": "Uroglobin (urine)", "setting": "[2]; 20 mg/kg, Day 20, three mice", "result": "4 mg/dL and 8 mg/dL"},
      {"measurement": "pH (urine)", "setting": "[2]; 20 mg/kg, Day 20, three mice", "result": "5 and 6"},
      {"measurement": "Pan-caspases", "setting": "4T1", "result": "↑"},
      {"measurement": "acute systemic toxicity (body mass, behavioral changes, fur color and loss, food intake)", "setting": "[3]", "result": "absence of acute systemic toxicity"}
    ]}
  ]
}
